Read-outs that look alike come from different tables or passages of the source.
How the values were obtained:
[1] = molecular target: human FPR2 (Homo sapiens (Human), UniProt P25090); assay: FPR2 cyclic adenosine monophosphate (cAMP) assay; format: cell-based; details: read-out: hFPR2 cAMP2 EC50
Description: (§1) N-formyl peptide receptors (FPRs) are a family of chemo attractant receptors that facilitate leukocyte response during inflammation. FPRs belong to the seven-transmembrane G protein-coupled receptor superfamily and are linked to inhibitory G-proteins (Gi). Three family members (FPR1, FPR2 and FPR3) have been identified in humans and are predominantly found in myeloid cells with varied distribution and have also been reported in multiple organs and tissues. After agonist binding, the FPRs activate a multitude of physiological pathways, such as intra cellular signaling transduction, Ca^21 mobilization and transcription. The family interacts with a diverse set of ligands that includes proteins, polypeptides and fatty acid metabolites which activate both pro-inflammatory and pro-resolution downstream responses. FPR2 and FPR1 Cyclic Adenosine Monophosphate (cAMP) Assays were used to measure the activity of the compounds in this patent.
(§2) FPR2 and FPR1 Cyclic Adenosine Monophosphate (cAMP) Assays. A mixture of forskolin (5 μM final for FPR2 or 10 μM final for FPR1) and IBMX (200 μM final) were added to 384-well Proxiplates (Perkin-Elmer) pre-dotted with test compounds in DMSO (1% final) at final concentrations in the range of 0.020 nM to 100 μM. Chinese Hamster Ovary cells (CHO) overexpressing human FPR1 or human FPR2 receptors were cultured in F-12 (Ham's) medium supplemented with 10% qualified FBS, 250 μg/ml zeocin and 300 μg/ml hygromycin (Life Technologies). Reactions were initiated by adding 2,000 human FPR2 cells per well or 4,000 human FPR1 cells per well in Dulbecco's PBS (with calcium and magnesium) (Life Technologies) supplemented with 0.1% BSA (Perkin-Elmer). The reaction mixtures were incubated for 30 min at room temperature. The level of intracellular cAMP was determined using the HTRF HiRange cAMP assay reagent kit (Cisbio) according to manufacturer's instruction. Solutions of cryptate conjugated anti-cAMP and d2 flurorophore-labelled cAMP were made in a supplied lysis buffer separately. Upon completion of the reaction, the cells were lysed with equal volume of the d2-cAMP solution and anti-cAMP solution. After a 1-h room temperature incubation, time-resolved fluorescence intensity was measured using the Envision (Perkin-Elmer) at 400 nm excitation and dual emission at 590 nm and 665 nm. A calibration curve was constructed with an external cAMP standard at concentrations ranging from 1 μM to 0.1 μM by plotting the fluorescent intensity ratio from 665 nm emission to the intensity from the 590 nm emission against cAMP concentrations. The potency and activity of a compound to inhibit cAMP production was then determined by fitting to a 4-parametric logistic equation from a plot of cAMP level versus compound concentrations.

[2] = molecular target: human FPR1 (Homo sapiens (Human), UniProt P21462); assay: FPR1 cyclic adenosine monophosphate (cAMP) assay; format: cell-based; details: read-out: hFPR1 cAMP EC50
Description: as §1, §2

[3] = CHO cells overexpressing human FPR2, forskolin 5 μM, IBMX 200 μM, inhibition of cAMP production, HTRF
[4] = CHO cells overexpressing human FPR1, forskolin 10 μM, IBMX 200 μM, inhibition of cAMP production, HTRF

human FPR2, sequence (P25090 whole entry): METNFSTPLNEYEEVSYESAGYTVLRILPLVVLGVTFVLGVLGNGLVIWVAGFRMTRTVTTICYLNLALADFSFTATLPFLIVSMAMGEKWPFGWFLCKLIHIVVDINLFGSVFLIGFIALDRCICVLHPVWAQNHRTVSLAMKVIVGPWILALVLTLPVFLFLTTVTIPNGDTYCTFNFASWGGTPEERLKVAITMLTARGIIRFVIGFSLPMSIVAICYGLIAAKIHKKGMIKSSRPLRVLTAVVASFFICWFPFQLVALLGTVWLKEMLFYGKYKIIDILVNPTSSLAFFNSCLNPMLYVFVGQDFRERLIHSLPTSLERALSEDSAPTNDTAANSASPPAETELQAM
human FPR1, sequence (P21462 whole entry): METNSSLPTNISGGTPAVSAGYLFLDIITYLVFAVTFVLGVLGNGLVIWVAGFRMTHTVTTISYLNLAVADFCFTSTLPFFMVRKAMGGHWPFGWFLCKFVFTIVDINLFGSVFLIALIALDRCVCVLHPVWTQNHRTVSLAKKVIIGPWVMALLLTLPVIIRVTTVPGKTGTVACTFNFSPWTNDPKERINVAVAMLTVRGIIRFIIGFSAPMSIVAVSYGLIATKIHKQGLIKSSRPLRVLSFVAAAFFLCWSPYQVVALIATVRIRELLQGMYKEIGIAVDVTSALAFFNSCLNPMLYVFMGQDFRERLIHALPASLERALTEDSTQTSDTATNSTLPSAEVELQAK

| SMILES | EC50 [1, 3] [nM] | EC50 [2, 4] [nM] | EC50 [1] [nM] | EC50 [2] [nM] |
| --- | --- | --- | --- | --- |
| COc1cc(F)c([C@@H]2CN(c3ncccc3C(F)(F)F)C(=O)[C@H]2NC(=O)NC2COc3cc(OC)ccc3C2)c(F)c1 (stereo partly drawn) [Example 33] | 4 | 4.2 |  |  |
| COc1cc(F)c([C@@H]2CN(c3ncccc3C(F)(F)F)C(=O)[C@H]2NC(=O)NC2CCc3cc(OC)ccc3C2(C)C)c(F)c1 (stereo partly drawn) [Example 58] | 29 | 220 |  |  |
| COCC(CO)n1cccc(N2C[C@@H](c3c(F)cc(OC)cc3F)[C@H](NC(=O)NC3CCc4cc(OC)ccc4C3)C2=O)c1=O (single isomer, unassigned) [Example 3] | 6 | 20 |  |  |
| COc1cc(F)c([C@@H]2CN(c3nccc(N4CC(C)(O)C4)c3C(F)(F)F)C(=O)[C@H]2NC(=O)N[C@H]2CC[C@H](C(F)F)CC2)c(F)c1 [Example 101] | 1.6 | > 10000 |  |  |
| COc1cc(F)c([C@@H]2CN(c3ncccc3C(F)(F)F)C(=O)[C@H]2NC(=O)NC2CCc3cc(OC)ccc3C2)c(F)c1 (stereo partly drawn) [Example 47] | 7.3 | > 10000 |  |  |
| COCCn1cccc(N2C[C@@H](c3c(F)cc(OC)cc3F)[C@H](NC(=O)NC3CCc4cc(OC)ccc4C3)C2=O)c1=O (stereo partly drawn) [Example 53] | 13 | 24.6 |  |  |
| COc1cc(F)c([C@@H]2CN(c3c(OC)ccn(C)c3=O)C(=O)[C@H]2NC(=O)NC2CCc3cc(Cl)ccc3C2)c(F)c1 (stereo partly drawn) [Example 8] | 0.6 | 0.5 |  |  |
| COc1cc(F)c([C@@H]2CN(c3cccn(C(F)F)c3=O)C(=O)[C@H]2NC(=O)NC2CCc3cc(OC)ccc3C2)c(F)c1 (single isomer, unassigned) [Example 95] | 4 | 5.3 |  |  |
| COc1ccc([C@H]2C[C@@H]2NC(=O)N[C@@H]2C(=O)N(c3ncccc3C(F)(F)F)C[C@H]2c2c(F)cc(OC)cc2F)cc1 [Example 49] | 9.9 | 2500 |  |  |
| COCCn1cccc(N2C[C@@H](c3ccc(Cl)cc3)[C@H](NC(=O)NC3CCc4cc(OC)ccc4C3)C2=O)c1=O (stereo partly drawn) [Example 55] | 24 | 0.5 |  |  |
| COc1cc(F)c([C@@H]2CN(c3c(C)ccn(CCO)c3=O)C(=O)[C@H]2NC(=O)NC2CCc3cc(OC)ccc3C2)c(F)c1 (single isomer, unassigned) [Example 84] | 1.4 | 0.3 |  |  |
| COCCn1cccc(N2C[C@@H](c3c(F)cc(OC)cc3F)[C@H](NC(=O)N[C@H]3CC[C@H](C(F)F)CC3)C2=O)c1=O [Example 70] | 33 | 1200 |  |  |
| COCCn1nccc(N2C[C@@H](c3c(F)cc(OC)cc3F)[C@H](NC(=O)NC3CCc4cc(OC)ccc4C3)C2=O)c1=O (stereo partly drawn) [Example 85] | 4.4 | 7.6 |  |  |
| COCC(CO)n1cccc(N2C[C@@H](c3c(F)cc(OC)cc3F)[C@H](NC(=O)NC3CCc4cc(OC)ccc4C3)C2=O)c1=O (stereo partly drawn) [Example 82] | 9.9 | 0.8 |  |  |
| COCCNc1ccnc(N2C[C@@H](c3c(F)cc(OC)cc3F)[C@H](NC(=O)N[C@H]3CC[C@H](C(F)F)CC3)C2=O)c1C(F)(F)F [Example 69] | 5.2 | 1800 |  |  |
| COCCn1cccc(N2C[C@@H](c3c(F)cc(OC)cc3F)[C@H](NC(=O)NC3CCc4cc(Cl)ccc4C3)C2=O)c1=O (stereo partly drawn) [Example 20] | 2.6 | 38.9 |  |  |
| CCn1cccc(N2C[C@@H](c3c(F)cc(OC)cc3F)[C@H](NC(=O)NC3CCc4cc(OC)ccc4C3(C)C)C2=O)c1=O (stereo partly drawn) [Example 61] | 33 | 17 |  |  |
| COCCn1cccc(N2C(=O)[C@@H](NC(=O)NC3CCc4cc(Cl)ccc4C3)[C@H](c3c(F)cc(OC)cc3F)[C@@H]2C)c1=O (stereo partly drawn) [Example 27] | 2.9 | 2.5 |  |  |

| SMILES | EC50 [1, 3] [nM] | EC50 [2, 4] [nM] | EC50 [1] [nM] | EC50 [2] [nM] |
| --- | --- | --- | --- | --- |
| COc1cc(F)c([C@@H]2CN(c3cccn(CCO)c3=O)C(=O)[C@H]2NC(=O)NC2CCc3cc(Cl)ccc3C2)c(F)c1 (stereo partly drawn) [Example 14] | 1.4 | 0.8 |  |  |
| COc1cc(F)c([C@@H]2CN(c3cccn(CC(O)C(F)(F)F)c3=O)C(=O)[C@H]2NC(=O)NC2CCc3cc(OC)ccc3C2)c(F)c1 (stereo partly drawn) [Example 80] | 11 | 1 |  |  |
| COc1cc(F)c([C@@H]2CN(c3ncccc3C(F)(F)F)C(=O)[C@H]2NC(=O)NC2CCc3cc(Cl)ccc3C2)c(F)c1 (stereo partly drawn) [Example 31] | 3.8 | 110 |  |  |
| COCCn1ccc(OC)c(N2C[C@@H](c3c(F)cc(OC)cc3F)[C@H](NC(=O)NC3CCc4cc(Cl)ccc4C3)C2=O)c1=O (stereo partly drawn) [Example 38] | 4.5 | 1.3 |  |  |
| COc1cc(F)c([C@@H]2CN(c3nccc(N4CCN5CCCC5C4)c3C(F)(F)F)C(=O)[C@H]2NC(=O)N[C@H]2CC[C@H](C(F)F)CC2)c(F)c1 (single isomer, unassigned) [Example 102] | 7.9 | 1000 |  |  |
| COc1cc(F)c([C@@H]2CN(c3cccn(CCO)c3=O)C(=O)[C@H]2NC(=O)NC2CCc3cc(Cl)ccc3C2)c(F)c1 (stereo partly drawn) [Example 19] | 1.9 | 30.1 |  |  |
| COc1cc(F)c([C@@H]2CN(c3ncccc3C(F)(F)F)C(=O)[C@H]2NC(=O)NC2CCc3cc(OC)ccc3C2)c(F)c1 (stereo partly drawn) [Example 46] | 7.1 | 1.5 |  |  |
| COCCn1ccc(OC)c(N2C[C@@H](c3c(F)cc(OC)cc3F)[C@H](NC(=O)NC3CCc4cc(OC)ccc4C3)C2=O)c1=O (stereo partly drawn) [Example 50] | 12 | 1.2 |  |  |
| COc1cc(F)c([C@@H]2CN(c3c(OC)ccn(C)c3=O)C(=O)[C@H]2NC(=O)NC2CCc3cc(OC)ccc3C2)c(F)c1 (stereo partly drawn) [Example 57] | 26 | 1.2 |  |  |
| COc1cc(F)c([C@@H]2CN(c3nccc(NC4CCOCC4)c3C(F)(F)F)C(=O)[C@H]2NC(=O)N[C@H]2CC[C@H](C(F)F)CC2)c(F)c1 [Example 68] | 27 | 4800 |  |  |
| COc1cc(F)c([C@@H]2CN(c3nccc(N4CCOCC4)c3C(F)(F)F)C(=O)[C@H]2NC(=O)N[C@H]2CC[C@H](C(F)F)CC2)c(F)c1 [Example 108] | 670 | 3500 |  |  |
| COc1cc(F)c([C@H]2[C@H](NC(=O)NC3CCc4cc(OC)ccc4C3)C(=O)N(c3ncccc3OC)[C@H]2C)c(F)c1 (stereo partly drawn) [Example 15] | 1.5 | 13.2 |  |  |
| COc1cc(F)c([C@@H]2CN(c3ncccc3C(F)(F)F)C(=O)[C@H]2NC(=O)N[C@H]2CC[C@H](C(F)F)CC2)c(F)c1 [Example 32] |  |  | 3.9 | 1200 |
| CNC(=O)CNc1ccnc(N2C[C@@H](c3c(F)cc(OC)cc3F)[C@H](NC(=O)N[C@H]3CC[C@H](C(F)F)CC3)C2=O)c1C(F)(F)F [Example 72] | 25 | > 1000 |  |  |
| COc1cc(F)c([C@@H]2CN(c3ncccc3C(F)(F)F)C(=O)[C@H]2NC(=O)NC2CCC3(CC2)CC3)c(F)c1 [Example 67] | 97 | > 10000 |  |  |
| CCn1nccc(N2C[C@@H](c3c(F)cc(OC)cc3F)[C@H](NC(=O)NC3CCc4cc(OC)ccc4C3)C2=O)c1=O (single isomer, unassigned) [Example 86] | 1.4 | 0.3 |  |  |
| CCn1nccc(N2C[C@@H](c3c(F)cc(OC)cc3F)[C@H](NC(=O)NC3CCc4cc(OC)ccc4C3)C2=O)c1=O (single isomer, unassigned) [Example 87] | 3.2 | 4.8 |  |  |
| COc1cc(F)c([C@@H]2CN(c3nccc(N4C[C@@H]5C[C@H]4CN5C)c3C(F)(F)F)C(=O)[C@H]2NC(=O)N[C@H]2CC[C@H](C(F)F)CC2)c(F)c1 (single isomer, unassigned) [Example 97] | 0.4 | 1400 |  |  |

— patent US20230303513A1, “OXOPYRROLIDINE UREA FPR2 AGONISTS” (BRISTOL-MYERS SQUIBB COMPANY, priority 2020, published 2023)
